Measured values from patent US7985738B2, “Cytosine nucleoside analogs and isoflavones and uses thereof” (Institut National de la Recherche Scientifique, priority 2007, dated 2011).
Several values for one entry are separate records, joined by “and”; a condition that tells them apart may be missing. Equal entries are not always repeated.

How the values were obtained:
[1] = tested on: HL-60 myeloid human leukemic cells; assay: Inhibition/loss of clonogenicity in soft agar, HL-60; type: cell-based; conditions: 48 h
Protocol: (§1) Cell lines and drug exposure. Human myeloid (HL-60) and lymphoid (MOLT-3) leukemic cells were obtained from ATCC (ATCC #: CRL-1552; Manassas, Va. USA). MBA-MD-231 and Dld-1 cells were also used. Human cell lines were cultured in RPMI-1640 medium (Invitrogen, Burlington, Ontario) supplemented with 10% heat-inactivated fetal bovine serum (Wisent, St-Bruno, Quebec). The doubling times of HL-60 and MOLT-3 were 16-18 h and 23-24 h, respectively, whereas for both MBA-MD-231 and Dld-1 cells it was 24-27 h. The murine lymphoid leukemic cell line L1210 (ATCC #: CCL-219; Brandes et al., (1966). J Natl Cancer Inst. 37(4): 467-85) was cultured in RPMI-1640 with 5% heat-inactivated fetal calf serum and with 6 μM of 2-mercaptoethanol. The doubling time of the L1210 cells was about 10 h. From this cell line, a clone fully resistant to […], identified herein as L1210/ARAC, was generated after exposure of increasing doses of cytosine arabinoside for a period of 3 months (Schabel et al., (1984). Cancer Treat. Rep 67: 905-922). The doubling time of the L1210/ARAC cells was about 12 h. Human lung adenocarcinoma cells H2087, and Calu-6 non-small cell lung cancer cells, were obtained from ATCC (ATCC #: CRL-5922; Manassas, Va. USA) and cultured in DMEM and RPMI without HEPES, respectively. The cells were trypsinized with 0.25% Trypsin-EDTA (Invitrogen, Grand Island, N.Y.). The doubling time of the H2087 cells was about 35 h. Cell lines were incubated at 37° C. in 5% CO2 atmosphere.
(§2) Genistein (LC Laboratories, Woburn, Mass.) was dissolved in DMSO (Sigma, Oakville, Ontario) to prepare stock solutions of 2 and 20 mM and kept frozen at −20° C. until use. Decitabine (DAC, Dacogen™, 5-aza-2′-deoxycytidine) at 1000 μg/ml in PBS was kept at −80° C. […]
(§3) Inhibition of clonogenicity. […] After 7 d of incubation for murine cell lines or 15 d for human cell lines, the number of colonies (>50 cells) was counted. […] The experiments were repeated three times and expressed as mean±S.E.M.
(§4) Statistical analyses. […] The p value was evaluated accordingly to Tukey's method (Hastings, C et al. (1947). Ann. Math. Statist. 18,413-426). […]

[2] = tested on: L1210/ARAC leukemic cells; assay: Survival of CD2F1 mice bearing L1210/ARAC leukemia; type: in vivo; conditions: i.v. 10^4 L1210/ARAC cells, 0.5% genistein in diet and/or DAC 2 mg/kg 8 h i.v. infusion on day 1
Protocol: (§5) In vivo experiments. Male CD2F1 mice (24-28 g) were purchased from Taconic Biotechnology (Germantown, N.Y., USA). Mice were acclimatized to housing conditions at least 2 weeks before experiments. They received food and water ad libitum. For transplantation of leukemia cells in mice, intraperitonal (i.p.) injections of 10^4 L1210 or L1210/ARAC cells in RPMI-1640 medium were performed weekly into the CD2F1 mice. Seven days later, the ascetic fluid was obtained from the mice and a cell count of the leukemic cells was performed with a haemocytometer prior to subsequent transplantation. Mice were injected intravenously (i.v.) with 0.1 ml of L1210 or L1210/ARAC (10^4) cells. Control groups that received the control diet 2016 (Teklad Global 16% Protein Rodent Diet™; Harlan Teklad, Madison Wis.) were either treated or not with DAC. To test the effect of genistein in the diet, mice were fed with 2016 diet supplemented with 0.5% genistein (Harlan Teklad) and treated with either DAC or the vehicle alone. Mice were acclimated to the genistein-enriched regimen over a 10-days period before injection of leukemic cells. A Harvard apparatus compact infusion pump was used at a flow rate of 0.22 ml/h via 25-gauge needle into the lateral tail vein. DAC was given at 2 mg/kg for 8 h. Decitabine was prepared fresh before each experiment, dissolved in ½ PBS and sterilized by 0.2 μm filtration. Mice were placed in a restrainer cage during treatment with access to food. Toxicity was evaluated by body weight loss. Mice fed with genistein-enriched diet kept the same regimen during all the experiment. The survival time of each group of mice was monitored and the increased in life span (ILS) calculated.
Statistical analyses. In order to evaluate whether the inter-group variations were random, one-way ANOVA testing was performed. The p value was evaluated accordingly to Tukey's method (Hastings, C et al. (1947). Ann. Math. Statist. 18,413-426). A p value≦0.05 was taken for statistical significance. Valeriote and Lin's method (Valeriote, F and Lin, H. S. 1975. Cancer Chemother. Rep. 59(5): 895-900) was used to determine if the interaction observed between drugs in the clonogenic assays was additive, synergistic or antagonistic.

[3] = tested on: L1210 leukemic cells; assay: Survival of CD2F1 mice bearing L1210 leukemia; type: in vivo; conditions: i.v. 10^4 L1210 cells; for Increase in life span (%): 0.5% genistein in diet and/or DAC 2 mg/kg 8 h i.v. infusion on day 1
Protocol: as §5, with “For transplantation of leukemia cells in mice, intraperitonal (i.p.) injections of 10^4 L1210 or L1210/ARAC cells in RPMI-1640 medium were performed weekly into the CD2F1 mice.” left out, “Control groups that received the control diet 2016 (Teklad Global 16% Protein Rodent Diet™; Harlan Teklad, Madison Wis.) were either treated or not with DAC. To test the effect of genistein in the diet, mice were fed with 2016 diet supplemented with 0.5% genistein (Harlan Teklad) and treated with either DAC or the vehicle alone.” left out
Statistical analyses. In order to evaluate whether the inter-group variations were random, one-way ANOVA testing was performed. […] A p value≦0.05 was taken for statistical significance.

[4] = tested on: L1210 murine lymphoid leukemic cells; assay: Inhibition/loss of clonogenicity in soft agar, L1210; type: cell-based
Protocol: as §1
(§6) Genistein (LC Laboratories, Woburn, Mass.) was dissolved in DMSO (Sigma, Oakville, Ontario) to prepare stock solutions of 2 and 20 mM and kept frozen at −20° C. until use. Decitabine (DAC, Dacogen™, 5-aza-2′-deoxycytidine) at 1000 μg/ml in PBS was kept at −80° C. Before each experiment, Decitabine was diluted at 1 μg/ml (for murine leukemic cell lines), 10 μg/ml (for human leukemic cells), or 100 μg/ml (for lung carcinoma cells) with sterile PBS and kept on ice until use.
Inhibition of clonogenicity. It is known that cancer cells form clones in soft agar (clonogenicity). Irreversible eradication of the clonogenicity of cancer stem cells is one of the objectives of chemotherapy since it is related to cell proliferation potential. Human and murine leukemic cell lines in log phase at 5×10^4 cells/ml were placed in tissue culture flasks and exposed to the drug combinations for 48 and 24 h respectively. […] After 7 d of incubation for murine cell lines or 15 d for human cell lines, the number of colonies (>50 cells) was counted. […] The experiments were repeated three times and expressed as mean±S.E.M.
as §4

[5] = tested on: MOLT-3 lymphoid human leukemic cells; assay: Inhibition/loss of clonogenicity in soft agar, MOLT-3; type: cell-based; conditions: 48 h
Protocol: as §1, §2, §3, §4

[6] = tested on: human lung carcinoma cell line (CALU-6); assay: Colony formation assay, CALU-6; type: cell-based
Protocol: as §1, with “atmosphere. […]” for “atmosphere.”
For human lung carcinoma H2087 cells, 100 cells were placed in wells of a 6-well dish (day 0); for Calu-6, MBA-MD-231 and Dld-1, 200 cells were seeded. […] Fresh medium (2 ml) was added and after 16-19 d colonies were stained with 0.5% methylene blue in 50% methanol and counted. […] The experiments were repeated three times and expressed as mean±S.D or mean±SEM for Calu-6, MBA-MD-231 and Dld-1 cells.
as §4

[7] = tested on: H2087 lung carcinoma cells; assay: Colony formation assay, H2087; type: cell-based, human; conditions: decitabine 220 nM and/or genistein 5 μM, 24 h, mean ± S.D., relative to untreated cells
Protocol: as §1, §6
For human lung carcinoma H2087 cells, 100 cells were placed in wells of a 6-well dish (day 0); for Calu-6, MBA-MD-231 and Dld-1, 200 cells were seeded. On day 1, Decitabine (50 ng/ml) and genistein (5 μM) were added concomitantly to the cells for 24 h. Drugs were then removed and wells were rinsed with 1 ml of medium. Fresh medium (2 ml) was added and after 16-19 d colonies were stained with 0.5% methylene blue in 50% methanol and counted. The inhibition/loss of clonogenicity (%) was expressed relative to control (untreated) cells. The experiments were repeated three times and expressed as mean±S.D or mean±SEM for Calu-6, MBA-MD-231 and Dld-1 cells.
as §4

[8] = tested on: L1210/ARAC cells (DAC-resistant clone of L1210); assay: Inhibition/loss of clonogenicity in soft agar, L1210/ARAC; type: cell-based, murine; conditions: alone or with DAC 4.4 nM
Protocol: as §1, with “The doubling time of the L1210/ARAC cells was about 12 h. Human lung adenocarcinoma cells H2087, and Calu-6 non-small cell lung cancer cells, were obtained from ATCC (ATCC #: CRL-5922; Manassas, Va. USA) and cultured in DMEM and RPMI without HEPES, respectively. The cells were trypsinized with 0.25% Trypsin-EDTA (Invitrogen, Grand Island, N.Y.). The doubling time of the H2087 cells was about 35 h. Cell lines were incubated at 37° C. in 5% CO2 atmosphere.” left out
as §3, §4

[9] = DAC 44 nM alone, relative to control cells
[10] = genistein 0.1 μM, alone or with DAC 44 nM
[11] = genistein 1 μM, alone or with DAC 44 nM

Nc1ncn([C@H]2C[C@H](O)[C@@H](CO)O2)c(=O)n1 [DAC, 4-Amino-1-(2-deoxy-β-D-ribofuranosyl)-1,3,5-triazin-2(1H)-one, reference compound]
loss of clonogenicity [1, 9]: 20% and 17% | Increase in life span (%) [2]: −2.3% | Survival time [2]: 9.42 ± 0.50 days | Increase in life span (%) [3]: 66.8% | loss of clonogenicity ([4]; DAC 4.4 nM alone, relative to control cells): 28% | loss of clonogenicity ([4]; DAC 4.4 nM alone, relative to control cells, listed as Decitabine): about 30% | loss of clonogenicity [5, 9]: 40% and 37% | Loss of clonogenicity (%) ([6]; decitabine 10 ng/ml alone): 36.6% | Loss of clonogenicity (%) [7]: 60% | Loss of clonogenicity (%) ([7]; listed as Decitabine): 60 ± 4.1%

O=c1c(-c2ccc(O)cc2)coc2cc(O)cc(O)c12 [genistein]
loss of clonogenicity [1, 10]: 1% | loss of clonogenicity [1, 11]: 15% | Increase in life span (%) [2]: 7.88% | Survival time [2]: 10.39 ± 1.01 days | Increase in life span (%) [3]: 7.0. (p < 0.001) % | survival time after injection of leukemia ([3]; 0.5% genistein-enriched diet): 7.85 ± 0.10 days | loss of clonogenicity ([4]; genistein 0.1 μM, alone or with DAC 4.4 nM): 2% | loss of clonogenicity ([4]; genistein 1 μM, alone or with DAC 4.4 nM): 13% | loss of clonogenicity [5, 10]: 1% | loss of clonogenicity [5, 11]: 12% | loss of clonogenicity ([8]; genistein 0.1 μM): 2% | loss of clonogenicity ([8]; genistein 1 μM): 11% | Loss of clonogenicity (%) ([6]; genistein 0.1 μM, alone or with decitabine 10 ng/ml): 4.9% | Loss of clonogenicity (%) ([6]; genistein 10 μM, alone or with decitabine 10 ng/ml): 31.7% | Loss of clonogenicity (%) [7]: 3.8% | Loss of clonogenicity (%) ([7]; listed as Genistein): 3.8 ± 9.4%
